# Assay results reported in US7056734B1, “Differentiation of non-insulin producing cells into insulin producing cells by GLP-1 or exendin-4 and uses thereof” (The United States of America as represented by the …, priority 1998, dated 2006).
# Where two headings read alike, the source gives them in different places.
# Experiments:
# [1] = test system: AR42J cells; experiment: Amylase release from AR42J cells; type: cell-based, rat; conditions: for effect on CCK-induced amylase release: combined with CCK (1 nM), genestein 300 μM
# Protocol: Cell Culture. AR42J cells were maintained in Dulbecco's modified Eagle's medium (Gibco, Grand Island, N.Y.) (DMEM) supplemented with 10% Fetal Calf Serum, 100 IU/ml penicillin, 100 μg/ml streptomycin and 2 mM glutamine. Cells from passage 23–36 were used throughout this study.
# Amylase Assay. For amylase secretion, cells were washed free of medium with 2 ml phosphate buffered saline (PBS). Incubation was then carried out in DMEM containing 15 mM HEPES, 0.2% bovine serum albumin (BSA) and 0.01% soybean trypsin inhibitor. The hormones and reagents of interest were added for 50 min at 37° C. The incubation medium was then immediately removed for amylase determination and the cells were again washed in 2 ml ice-cold PBS. […] The released amylase was expressed as the percentage of the total amylase activity of the cells.
# [2] = test system: rat acinar cells; conditions: CCK alone vs 10^−8 M exendin-4 and CCK together; Malhotra et al. 1992; cited from earlier work
# [3] = test system: AR42J cells; experiment: Intracellular calcium in single AR42J cells (indo-1); type: cell-based, rat; conditions: for AR42J cells showing [Ca2+]i response: CCK 1 nM
# Protocol: Measurement of intracellular calcium, [Ca^2+]l. AR42J cells were loaded with the fluorescent Ca^2+ probe, indo-1 acetoxymethyl ester (indo-1/AM). […] Both loading with indo-1 and the experiments were carried out at room temperature (22–24° C.). […] The emission field was restricted to a single cell. Indo-1 was excited at 350±5 nm every 5 ms, and the fluorescence emission was split into wavelength bands of 410±5 and 490±5 nm. […] The cell autofluorescence was assessed in a large number of indo-1 non-loaded cells from the same batch. […] Routinely, the cells were exposed to the test solution for 240–300s. Thereafter, the test solution was washed out, while [Ca^2+]l was monitored for additional 120–180s. The test solutions were prepared just prior to the experiment by adding the hormones in standard bathing solution.
# [4] = test system: AR42J cells; experiment: Protein tyrosine phosphorylation in AR42J cells; type: cell-based, rat; conditions: 5 min treatment
# Protocol: Tyrosine Phosphorylation Studies. […] Then the medium was removed and fresh KRBB was added, followed by placing the cell on a 37° C. hot plate for 5 min. After addition of various reagents (see FIG. 24) for 5 min the reaction was terminated by submersion of the dishes in liquid nitrogen. The frozen cells were scraped and lysed in RIPA buffer. […] The blots were developed using the ECL chemiluminescence detection system (Amersham).
# [5] = test system: AR42J cells; experiment: Intracellular cAMP in AR42J cells; type: cell-based, rat; conditions: for intracellular cAMP levels: 1 h, GLP-1 0.1 to 100 nM, IBMX 100 nM, CCK 0.1 to 100 nM, exendin-4 0.1 to 10 nM
# Protocol: Measurement of cAMP. Cells were grown in 12-well dishes and treated with hormones and reagents±IBMX as described above. They were then washed 3 times in ice-cold PBS and lysed with 1 ml ice-cold […] perchloric acid. The lysates (950 μl) were transferred to microcentrifuge tubes and the pH adjusted to 7.0 using 5 M K2CO3. After centrifugation for 5 min at 10^4 rpm, the supernatant was vacuum dried, and then recovered in 200 μl Tris/EDTA buffer. After addition of 0.15 mM Na2CO3 (50 μl) and 0.15 mM ZnSO^4 (50 μl), followed by incubation for 15 min on ice, the salt precipitate was removed by centrifugation for 15 min at 3.5×10^3 rpm and 50 μl of supernatant was assayed using a cAMP [^3] assay kit (Amersham Corp., Arlington Heights, Ill.), (Steiner et al., 1972).
# [6] = test system: AR42J cells; experiment: Immunoreactive insulin release from treated AR42J cells (RIA); type: cell-based, rat; conditions: 200 μM PKI or PD98059 (50 μM)
# Protocol: Measurement of immunoreactive insulin. AR42J cells were cultured as before in 12-well cluster plates. When cells reached 60% confluence, they were treated with GLP-1 for 3 days. At the beginning of the experiments, an aliquot of the medium was taken in order to assay the insulin accumulation in the medium. Then the cells were twice washed with Kreb's Ringer Balanced Buffer (KRBB) and incubated in the same buffer containing 10 mM glucose for another 1 h. The medium was collected and kept at −20° C. until insulin levels were assayed by RIA (See Example 1; Wang et al., Endocrinology, 1995). The cells were washed with PBS and detached with 0.25% typsin and 0.02% EDTA. The cell pellet was collected and lysed with formic acid for protein determination by the Bradford method (Bradford, 1976), using bovine-globulin as standard.
# [7] = test system: AR42J cells; experiment: Immunocytochemistry of insulin- and glucagon-positive AR42J cells; type: cell-based, rat; conditions: PD98059 50 μM or PKI 300 μM added concurrently with GLP-1
# Protocol: Cell culture. AR42J cells were maintained in Dulbecco's modified Eagle's medium (DMEM) supplemented with 10% fetal calf serum (FBS), 100 IU/ml penicillin, 100 μg/ml streptomycin and 2 mM glutamine. Cells from passage 23–35 were used throughout this study. Cells were routinely plated at a density of about 10^5 cells/ml in 12-well cluster dishes or on coverslips and incubated in a humidified incubator at 37° C. with 95% air and 5% CO2.
# Immunocytochemistry analysis. Cells were cultured on glass coverslips, washed with phosphate buffered saline (PBS) to remove serum, and fixed with 0.5% glutaraldehyde in PBS. Cells were permeabilized with 0.2% Triton X-100 for 5 min and the rest of the procedure was carried out at room temperature in a humidified chamber. Suction was used to remove reagents between each step but drying of specimens was avoided. Sufficient reagent was used to cover each specimen (approximately 1 or 2 drops was usually adequate). The coverslips were incubated in 0.3% H2O2 in PBS for 30 min to quench endogenous peroxidase activity and washed in PBS×3 times, followed by incubation with 2% goat serum in PBS for 30 min to block non-specific binding of IgG. Excess serum was removed by blotting. The specific primary polyclonal antisera (anti-insulin 1:300; anti-glucagon 1:300) were used. Antibody was diluted in PBS containing 1% goat serum. This was applied to the coverslip and incubated at room temperature for 1 h. The coverslips were washed ×3 times in PBS, each time for 5 min, then incubated with biotinylated second antibody for 1 h and washed ×3 times with PBS. Avidin-biotin-peroxidase complex in PBS was applied for 30 min. Immunoperoxidase labeling was performed with a Vectostain ABC kit (Vector Labs, Burlingame, Calif.). After extensive washing in PBS for 4–5 times (each 5 min), the coverslips were incubated in diaminobenzidine tetrahydrochloride (DAB) in PBS, with 0.01% hydrogen peroxide for 3 min. The reaction was stopped by washing the coverslips in PBS and examined under a light microscope. To confirm specific staining, samples incubated with preabsorbed primary antibody were used as negative control, and the insulin producing cell line RIN 1046-38 cells were used as positive control for our experiments. The avidin-biotin-peroxidase (ABC) procedure was performed according to methods known in the art (Hsu et al., 1981).
# [8] = test system: AR42J cells; experiment: Amylase content and CCK response of AR42J cells after 72 h treatment; type: cell-based, rat; conditions: dexamethasone 72 h
# Protocol: Amylase Assay. For amylase determination, cells were washed free of medium with 2 ml PBS. Incubation was then carried out in DMEM containing 15 mM HEPES, 0.2% BSA and 0.01% soybean trypsin inhibitor. CCK (1 nM) was added for 50 min at 37° C. The incubation medium was then immediately removed for amylase determination and the cells were again washed in 2 ml ice-cold PBS. Lysate buffer containing (in mM) 130 Tris-HCl, 10 CaCl2, 75 NaCl, and 0.2% Triton X-100 (pH 8.0) was added to the cells and the lysates were then collected for total amylase (Ceska et al., 1969). The released amylase was expressed as the percentage of the total amylase in the cells.
# [9] = test system: AR42J cells; experiment: 125I-GLP-1 binding to AR42J cells; parameters: species or system rat; dose or concentration left out as unconfirmed; conditions: displacement by cold GLP-1, n=9
# Protocol: GLP-1 binding. AR42J cells were plated and cultured as described above. At the start of the binding experiment the cells were incubated with serum-free DMEM for 2 h at 37° C. Cells were then washed twice with 0.5 ml binding buffer containing (in mM) 120 NaCl, 1.2 MgSO4, 13 sodium acetate, 5 KCl, 10 Tris, pH 7.6. […] We only used freshly prepared ^125I-GLP-1 within two weeks of the reference date. At the end of the incubation, the supernatant was discarded and the cells were washed three times with ice-cold PBS. Cells were lysed with 0.5 ml 0.5 N NaOH/0.1% SDS for 30 min at room temperature. The radioactivity was measured in the lysates in an ICN Apec series gamma counter. […] This method has been used previously to characterize GLP-1 binding in CHO cells overexpressing GLP-1 receptor and in 3T3-L1 adipocytes (Montrose-Rafizadeh et al., J. Biol. Chem., 1997; Montrose-Rafizadeh et al., J Cell Physiol., 1997).
# [10] = test system: ERK; experiment: MAP kinase (ERK) activity in AR42J cells; type: cell-based, rat; conditions: PKI 300 μM
# Protocol: MAP Kinase Activity. After treatment, 60 mm dishes of 80% confluent cells were lysed at 4° C. in lysis buffer (in mM): 50 TRIS-HCl, PH 8, 150 NaCl, 5 EDTA, 1% NP-40, 0.25% sodium deoxycholate, 1 NaF, 10 sodium pyrophosphate, 0.1 PMSF, 1 sodium orthovanadate, 20 μg/ml aprotinin, and 10 μg/ml leupeptin. The cell lysate was clarified by centrifugation at 16,000×g at 4° C. for 20 min. The clarified cell lysate was immunoprecipitated overnight at 4° C., rotating with 4.5 μg of ERK1-CT antibody and 40 μl of packed protein G+protein A agarose resin (Oncogene Research Product, Cambridge, Mass.). The immune pellet was assayed for MAPK activity using MBP as the substrate. MBP (18.6 μg) was phosphorylated at 20° C. for 10 min in a final volume of 60 μl containing 20 mM Hepes, PH 7.4, 10 mM MgCl2, 1 mM DTT, 20 uM unlabeled ATP and 40 μCi (3,000 Ci/mmol) [^32P]-ATP. The reaction was terminated by the addition of 25 μl of 3× Laemmli sample buffer and heating at 70° C. for 10 min. MAPK activity was assessed by SDS-PAGE and auto-radiography. The autoradiograms were quantified by densitometry.
# [11] = 50 min, glucagon 10 or 100 nM, GLP-1 10 nM, insulin 100 nM, 8-Br-cAMP 100 nM, vanadate 1 mM
compound,measurement,setting,value
[O]=[V]([O-])([O-])[O-] [vanadate],effect on amylase release when given alone,[1],increased significantly
same,effect on CCK-induced amylase release,[1]; vanadate 1 mM,increased significantly
"CCK: Cholecytokinin, stimulus of amylase release, from Sigma",concentration of maximum stimulation of amylase release,"[1]; 50 min, dexamethasone-induced AR42J cells",10 nM
same,effect on amylase release when given alone,[1]; [11],potent stimulus of amylase release
same,total amylase released,[2],12%
same,"peak [Ca2+]i amplitude, increase over resting indo-1 fluorescence ratio (IFR)",[3]; single cells,2.5–3.5 fold
same,AR42J cells showing [Ca2+]i response,"[3]; single cells, glucagon 10 nM",85%
same,"increase in tyrosine phosphorylation levels of 46, 66, 120 and 190 kDa proteins",[4],≥ 2 fold
same,intracellular cAMP levels,[5],not altered
"insulin: islet hormone, from Sigma",effect on amylase release when given alone,[1]; [11],did not influence amylase release
same,effect on CCK-induced amylase release,[1]; vanadate 1 mM,did not influence amylase release
same,basal or CCK (1 nM)-induced amylase release after pre-incubation,"[1]; pre-incubation 8, 24, 48 or 72 h with GLP-1 (10 nM) and insulin (100 nM)",did not increase
same,effect on protein tyrosine phosphorylation,[4],increased phosphorylation of 97 kDa band
"COc1cccc(-c2cc(=O)c3ccccc3o2)c1N [PD98059, reference compound]",insulin secretion of GLP-1-treated cells in presence of inhibitor,[6],barely detected
same,effect on GLP-1-induced conversion of AR42J cells,[7],conversion of the cells did not occur
"C[C@@H]1C[C@H]2[C@@H]3CCC4=CC(=O)C=C[C@]4(C)[C@@]3(F)[C@@H](O)C[C@]2(C)[C@@]1(O)C(=O)CO [dexamethasone, reference compound]",increase in amylase content vs non-dexamethasone-treated cells,[8],6.6 fold
same,amylase content of cells,[8]; non-treated cells 1.88 U/l,12.57 U/l
"^125I-GLP-1: radiolabelled GLP-1 (2,000 Ci/mmol, Peninsula)","specific 125I-GLP-1 binding, % of total binding",[9],27±3.2%
same,"specific 125I-GLP-1 binding, % of total radioactivity added",[9],0.64±0.16%
"[F-].[Na+] [NaF, sodium fluoride]",effect on amylase release when given alone,[1]; [11],did like-wise
same,effect on protein tyrosine phosphorylation,[4],increased
"glucagon: islet hormone, from Bachem",effect on amylase release when given alone,[1]; [11],no effect
same,effect on CCK-induced amylase release,[1]; vanadate 1 mM,"inhibited, but did not fully abolish"
same,peak [Ca2+]i transient as percent of resting IFR level,[3]; glucagon 10 nM,200–250%
same,effect on time course of CCK-induced [Ca2+]i transients,"[3]; glucagon 10 nM, 8-bromo-cAMP 0.1 μM for 60–300 sec",attenuated rate of rise and a very slow rate of relaxation
same,AR42J cells showing [Ca2+]i response,"[3]; single cells, glucagon 10 nM",70%
same,increase in cAMP levels,"[5]; glucagon 10 nM, presence and absence of CCK",2 fold
CC(C)Cn1c(=O)n(C)c(=O)c2[nH]cnc21 [IBMX],intracellular cAMP levels,[5],not altered
"CCCCCCCCCCCCCCCCOCC(CO)OC (racemic) [PKI, 1-o-Hexadecyl-2-o-methyl-rac-glycerol, reference compound]",MAPK activity with inhibitor alone,[10],decreased MAPK activity to less than that of control cells
same,insulin secretion of GLP-1-treated cells in presence of inhibitor,[6],barely detected
same,effect on GLP-1-induced conversion of AR42J cells,[7],conversion of the cells did not occur
O=c1c(-c2ccc(O)cc2)coc2cc(O)cc(O)c12 [Genestein],effect on CCK-induced amylase release,[1]; vanadate 1 mM,decreased
same,effect on protein tyrosine phosphorylation,[4],decreased tyrosine phosphorylations induced by CCK
